Tested on: Plasmodium berghei
Assay: Luciferase/luciferin-expressing antifolate-resistant parasites were used to infect a culture of HepG2 cells that were pre-incubated with compounds. Infected hepatocytes emit light due to the luciferase reaction. Assay results are presented as the percent inhibition of light emission compared to control. […]
Assay type: functional
Details: sporozoite; for IC50: read-out: LUCIFERASE INFECTION ASSAY - IC50; for IC90: read-out: LUCIFERASE INFECTION ASSAY - IC90

## COC(=O)c1cccc(OC(=O)/C=C/c2ccc(-c3ccccc3)s2)c1
  IC50: > 10 µM
  IC90: > 10 µM

## COc1cc(OC)cc(C2c3c(C)nn(-c4ccccc4)c3NC(=O)C2NC(=O)c2ccccc2)c1 (configuration not stated)
  IC50: > 10 µM
  IC90: > 10 µM

## O=C(COC(=O)c1cc(-c2ccccc2)c(N2CCOCC2)s1)c1ccc2c(c1)OCCO2
  IC50: > 10 µM
  IC90: > 10 µM

## COc1ccc(/C=C/C(=O)N2CCCC2c2cccs2)cc1S(=O)(=O)N1CCCCC1 (configuration not stated)
  IC50: > 10 µM
  IC90: > 10 µM

## Cc1nc2ccccn2c1C(=O)N/N=C/c1c(-c2ccccc2)n(-c2ccccc2)c2ccccc12
  IC50: > 10 µM
  IC90: > 10 µM

## COc1ccc2nc(N(Cc3ccccc3)C(=O)C3Cc4ccccc4C(=O)O3)sc2c1 (configuration not stated)
  IC50: > 10 µM
  IC90: > 10 µM

## Cc1cc(OCC(=O)/N=c2/sccn2C)c(C(C)C)cc1Cl
  IC50: > 10 µM
  IC90: > 10 µM

## CC(C(=O)Nc1cccc(S(=O)(=O)N2CCOCC2)c1)N(C)Cc1cccc(Cl)c1Cl (configuration not stated)
  IC50: > 10 µM
  IC90: > 10 µM

## Cc1cc2nc(Oc3ccc4c(c3)CCC4)c3ccccc3n2n1
  IC50: > 10 µM
  IC90: > 10 µM

## COc1ccc(-n2nnnc2SCC(=O)Nc2cc(-c3ccc(C)cc3)nn2-c2ccccc2)cc1
  IC50: > 10 µM
  IC90: > 10 µM

## CC1CCN(Cc2nc3scc(-c4ccccc4)c3c(=O)n2CC(=O)N2CCc3ccccc32)CC1
  IC50: > 10 µM
  IC90: > 10 µM

## Cc1ccc(-c2cc3nc(SCCOc4ccccc4F)n(Cc4ccccc4)c(=O)c3s2)cc1
  IC50: > 10 µM
  IC90: > 10 µM

## CCOC(=O)c1c(NC(=O)COC(=O)c2ccccc2Nc2cccc(C)c2C)sc(C(=O)N(C)C)c1C
  IC50: > 10 µM
  IC90: > 10 µM

## COc1cc2c(cc1/C=C/C(=O)N(Cc1nc(=O)c3ccccc3[nH]1)CC1CCCO1)OC(C)C2 (configuration not stated)
  IC50: > 10 µM
  IC90: > 10 µM

## CS(=O)(=O)N1CCc2cc(C(=O)CSc3nc(-c4cccs4)nc4ccccc34)ccc21
  IC50: > 10 µM
  IC90: > 10 µM

## COc1ccc(Cl)cc1NC(=O)CN(C)C(=O)c1cc(-c2ccccc2)nc2c1cnn2C(C)C
  IC50: > 10 µM
  IC90: > 10 µM

## Cc1noc(C)c1COc1ccc(C(=O)OCC(=O)N(C)C2(C#N)CCCCC2)cc1
  IC50: > 10 µM
  IC90: > 10 µM

## COc1ccc(NC(=O)C(OC(=O)c2ccccc2SCC(=O)Nc2c(C)n(C)n(-c3ccccc3)c2=O)c2ccccc2)cc1Cl (configuration not stated)
  IC50: > 10 µM
  IC90: > 10 µM

## CC1(NC(=O)COC(=O)c2cc(Cl)c3c(c2)OCO3)CCS(=O)(=O)C1 (configuration not stated)
  IC50: > 10 µM
  IC90: > 10 µM

## CCc1ccccc1Nc1nc(N)nc(CN2CCN(S(=O)(=O)Cc3ccccc3)CC2)n1
  IC50: > 10 µM
  IC90: > 10 µM

## Cc1ccccc1OCCCn1c(CCCNC(=O)c2ccco2)nc2ccccc21
  IC50: > 10 µM
  IC90: > 10 µM

## Cc1ccc(S(=O)(=O)N2CCC(C(=O)Nc3nnc(-c4ccc(Cl)cc4)o3)CC2)c(C)c1
  IC50: > 10 µM
  IC90: > 10 µM

## Cc1oc2cc(OC(C)C(=O)Nc3cccc([N+](=O)[O-])c3)ccc2c(=O)c1-c1ccccc1 (configuration not stated)
  IC50: 8.01 µM
  IC90: > 10 µM

## Cc1cc(C)c(NC(=O)c2cc(-c3ccccc3)nn2-c2ccccc2)c(C)c1
  IC50: > 10 µM
  IC90: > 10 µM

## Cc1nc(SCC(=O)NCCN2C(=O)CSC2=O)n(C2CCCCC2)c1C
  IC50: > 10 µM
  IC90: > 10 µM

## CC1CCN(Cc2nc(Oc3cccc4c3OC(C)(C)C4)c3c(-c4ccccc4)csc3n2)CC1
  IC50: > 10 µM
  IC90: > 10 µM

## CCOc1ccccc1OCC(=O)Nc1nc(-c2cc(C)n(-c3ccc(F)cc3)c2C)cs1
  IC50: > 10 µM
  IC90: > 10 µM

## CC1CCc2c(sc3nc(CN4CCOCC4)nc(Oc4ccc(Cl)c5cccnc45)c23)C1 (configuration not stated)
  IC50: > 10 µM
  IC90: > 10 µM

## COc1cccc(C(CNc2nc(C)nc3sc4c(c23)CCCCC4)N2CCCC2)c1 (configuration not stated)
  IC50: > 10 µM
  IC90: > 10 µM

## c1ccc(CN2CCC(Nc3nc(-c4ccccn4)nc4scc(-c5ccccc5)c34)CC2)cc1
  IC50: > 10 µM
  IC90: > 10 µM

## COc1cc(/C=N/Nc2nc(Cl)c(Cl)cc2Cl)ccc1OCC(=O)N1CC(C)OC(C)C1 (configuration not stated)
  IC50: > 10 µM
  IC90: > 10 µM

## Cc1cc(C(=O)N/N=C/c2ccc(Sc3ncccn3)c([N+](=O)[O-])c2)c(C)n1-c1ccccc1
  IC50: > 10 µM
  IC90: > 10 µM

## CCCCOc1ccc(CN2CCN(CC(=O)NC)CC2)cc1OCC
  IC50: > 10 µM
  IC90: > 10 µM

## CC(OC(=O)/C=C/c1ccc2ccccc2n1)C(=O)NC1CCCc2ccccc21 (configuration not stated)
  IC50: > 10 µM
  IC90: > 10 µM

## Cc1cccn2cc(CN3CCN(S(=O)(=O)c4ccc(Cl)c(C(F)(F)F)c4)CC3)nc12
  IC50: > 10 µM
  IC90: > 10 µM

## CS(=O)(=O)c1ccc(Oc2ccc(-n3ccnc3)cc2)c([N+](=O)[O-])c1
  IC50: > 10 µM
  IC90: > 10 µM

## Cc1ccc(Cn2ccs/c2=N/C(=O)COC(=O)CCN2C(=O)C3CC=CCC3C2=O)cc1 (configuration not stated)
  IC50: > 10 µM
  IC90: > 10 µM

## O=C(NCCc1c[nH]c2ccccc12)c1ccc2c(c1)CC(c1ccccc1)OC2=O (configuration not stated)
  IC50: > 10 µM
  IC90: > 10 µM

## O=C(C1CC(=O)N(c2ccccc2F)C1)N1CCN(c2ccc(C(F)(F)F)cn2)CC1 (configuration not stated)
  IC50: > 10 µM
  IC90: > 10 µM

## CCCCN(C(=O)c1cccnc1SC)c1nc2ccc(C)cc2s1
  IC50: > 10 µM
  IC90: > 10 µM

## CCOC(=O)c1c(NC(=O)C(C)N(C)CC(=O)Nc2cc(C)ccc2C)sc2c1CCC(C)C2 (configuration not stated)
  IC50: > 10 µM
  IC90: > 10 µM

## Cc1ccc(S(=O)(=O)N/N=C/c2c(C)nn(-c3ccccc3)c2C)cc1[N+](=O)[O-]
  IC50: > 10 µM
  IC90: > 10 µM

## O=C(CN1CC=C(c2ccccc2)CC1)NC(c1ccccc1)c1ccccc1
  IC50: > 10 µM
  IC90: > 10 µM

## CCn1c2ccccc2c2cc(/C=C3\SC(=S)N(CCCN(C)C)C3=O)ccc21
  IC50: > 10 µM
  IC90: > 10 µM

## Cc1c(C(=O)OCC(=O)/C=C2\N(C)c3ccccc3C2(C)C)sc2nc3n(c(=O)c12)CCC3
  IC50: > 10 µM
  IC90: > 10 µM

## COc1ccccc1NC(=O)c1cc2ccccc2c(CN2CCN(c3ccccc3)CC2)c1O
  IC50: > 10 µM
  IC90: > 10 µM

## CCOc1cc(/C=C(\C#N)C(=O)c2cccc(OC)c2)cc(Cl)c1O
  IC50: > 10 µM
  IC90: > 10 µM

## Cc1cc(O)c(C(C)C)cc1NC1=NC(=O)S/C1=C\c1cc(Cl)ccc1OCC(=O)Nc1ccc(Cl)cc1
  IC50: 2.98 µM
  IC90: 3.24 µM

## Cc1ccc(Cn2nc(C)c(C(=O)OCC(=O)/C=C3\N(C)c4ccccc4C3(C)C)c2Cl)cc1
  IC50: > 10 µM
  IC90: > 10 µM

## Cc1c(C(=O)OCC(=O)c2cc(C)n(-c3cccc(F)c3)c2C)sc2nc3n(c(=O)c12)CCC3
  IC50: > 10 µM
  IC90: > 10 µM

## CN(CCCc1[nH]nc(N)c1C#N)c1nc(-c2ccccn2)nc2scc(-c3ccccc3)c12
  IC50: 7.69 µM
  IC90: > 10 µM

## O=C(COC(=O)c1ccccc1NCCO)NC(=O)NCc1ccco1
  IC50: > 10 µM
  IC90: > 10 µM

## Cc1nnnn1/C(=C\c1ccccc1)C(=O)N(Cc1cccs1)c1ccc2c(c1)OCCO2
  IC50: > 10 µM
  IC90: > 10 µM

## O=C(COC(=O)c1cn(-c2ccccc2)nc1-c1cccs1)Nc1nnc(-c2ccccc2)o1
  IC50: > 10 µM
  IC90: > 10 µM

## Cc1sc2ncnc(N3CCC(C(=O)Nc4nnc(-c5cccc([N+](=O)[O-])c5)o4)CC3)c2c1C
  IC50: > 10 µM
  IC90: > 10 µM

## CCN(CC)Cc1ccc(CNC(=O)c2oc3ccccc3c2CSc2nnc[nH]2)cc1
  IC50: 2.48 µM
  IC90: > 10 µM

## CCCCn1nc(C(=O)Nc2nc(-c3ccc(CCNC(C)=O)cc3)cs2)c2ccccc2c1=O
  IC50: > 10 µM
  IC90: > 10 µM

## O=C(CN1CCN(Cc2ccc(-n3cccn3)cc2)CC1)Nc1ccc(OC(F)(F)F)cc1
  IC50: > 10 µM
  IC90: > 10 µM

## CCCn1c(NC(=O)CCN(c2ccc(C)cc2)S(=O)(=O)c2ccc(C)cc2)nc2ccccc21
  IC50: > 10 µM
  IC90: > 10 µM

## C/C(N)=C(/C#N)C(=O)CSc1nnc(-c2ccc(C(C)(C)C)cc2)n1-c1cccc(Cl)c1Cl
  IC50: > 10 µM
  IC90: > 10 µM

## Cc1ccc(-n2c(SCC(=O)NCCN3C(=O)S/C(=C\c4ccc(C(C)(C)C)cc4)C3=O)nc3sc4c(c3c2=O)CCCC4)c(C)c1
  IC50: > 10 µM
  IC90: > 10 µM

## CCc1ccc(CN(C)C(C)C(=O)Nc2cc(S(=O)(=O)N(C)C)ccc2C)cc1 (configuration not stated)
  IC50: 8.31 µM
  IC90: > 10 µM

## C=CCNc1nc(C(=O)OCc2cc(=O)n3cc(Br)ccc3n2)cs1
  IC50: > 10 µM
  IC90: > 10 µM

## CN(C)c1ccc(C(c2cc(C(C)(C)C)c(O)c(C(C)(C)C)c2)N2CCCCC2)cc1 (configuration not stated)
  IC50: > 10 µM
  IC90: > 10 µM

## COC(=O)c1c(COC(=O)/C=C/c2ccc(OCC#N)c(OC)c2)nc2ccccc2c1-c1ccccc1
  IC50: > 10 µM
  IC90: > 10 µM

## CC1(c2cc(F)ccc2F)NC(=O)N(CC(=O)c2cn(CCC#N)c3ccccc23)C1=O (configuration not stated)
  IC50: > 10 µM
  IC90: > 10 µM

## CCC(C)c1ccc(S(=O)(=O)N2CCN(C(C)C(=O)N3c4ccccc4CC3C)CC2)cc1 (configuration not stated)
  IC50: > 10 µM
  IC90: > 10 µM

## Cc1c(C(=O)Nc2ccc(N3CCOCC3)cc2N2CCOCC2)oc2ccc(F)cc12
  IC50: > 10 µM
  IC90: > 10 µM

## Cc1csc(C(C#N)C(=O)COC(=O)c2ccccc2SCC(=O)N(C)C)n1 (configuration not stated)
  IC50: > 10 µM
  IC90: > 10 µM

## Cc1noc(C)c1CSc1ncccc1C(=O)N(C)c1ccc2ccccc2c1
  IC50: > 10 µM
  IC90: > 10 µM

## CCCCn1nc(C(=O)NC(c2ccccc2)c2ccc(OC)cc2)c2ccccc2c1=O (configuration not stated)
  IC50: > 10 µM
  IC90: > 10 µM

## Cc1cccc(C=C(C(=O)Nc2ccccc2Cl)C(=O)Nc2ccccc2Cl)c1
  IC50: > 10 µM
  IC90: > 10 µM

## O=C(Nc1ccccc1C(=O)OCN1C(=O)c2ccccc2C1=O)c1ccc([N+](=O)[O-])cc1Cl
  IC50: > 10 µM
  IC90: > 10 µM

## Cc1ccc(Sc2ccc(/C=c3\s/c(=C\C(=O)c4ccc(Cl)cc4)[nH]c3=O)cc2[N+](=O)[O-])cc1
  IC50: > 10 µM
  IC90: > 10 µM

## FC(F)Oc1ccccc1/C=N/n1c(-c2ccc3c(c2)OCCO3)cs/c1=N\CC1CCCO1 (configuration not stated)
  IC50: > 10 µM
  IC90: > 10 µM

## COc1cc([N+](=O)[O-])ccc1NC(=O)CN1CCc2ccccc2C1
  IC50: > 10 µM
  IC90: > 10 µM
